This is an account of results in ChEMBL document CHEMBL1614631, “Comparative evaluation of oral systemic exposure of 56 xenobiotics in rat, dog, monkey and human” (Xenobiotica, 2005).

SMILES strings stand for the structures.

The nature of series [1]: Dose normalised AUC in human after po administration. As to conditions: in vivo.
A short description of series [2]: Dose normalised AUC in rat after po administration. The settings on record: in vivo.
Series [3] in a line: Dose normalised AUC in dog after po administration. As to conditions: in vivo.
Series [4] is described as follows: Dose normalised AUC in monkey after po administration. As to conditions: macaca, in vivo.

Turning to `Cc1nc(=O)c(C#N)c(NCc2cccnc2)[nH]1` [PELRINONE], the DNAUC in series [1] was found to be 152.38 kg·min/L; in series [2], 20 kg·min/L; in series [3], 84 kg·min/L; in series [4] it was 39.2 kg·min/L.

`CCn1cc(C(=O)O)c(=O)c2cc(F)c(N3CCN(C)CC3)cc21` [PEFLOXACIN]: the DNAUC amounted to 505.26 kg·min/L in series [1], 67.2 kg·min/L in series [2], 120 kg·min/L in series [3] and 259.2 kg·min/L in series [4].

Regarding `O=C(O)c1cn(C2CC2)c2cc(N3CCNCC3)c(F)cc2c1=O` [CIPROFLOXACIN], the DNAUC stood at 77.03 kg·min/L in series [1], 9.36 kg·min/L in series [2], 32.75 kg·min/L in series [3] and 85.2 kg·min/L in series [4].

For the compound `CCCCCNC(=O)c1coc([C@H]2[C@@H](Cc3ccccc3CCC(=O)O)[C@@H]3CC[C@H]2O3)n1` [IFETROBAN], the DNAUC worked out at 77.32 kg·min/L in series [1], 2.86 kg·min/L in series [2], 9.48 kg·min/L in series [3] and 13.02 kg·min/L in series [4].

As for `C1=C(c2ccccc2)CCN(C[C@@H]2CCC=C(c3ccccc3)C2)C1` [CI-1007], the DNAUC worked out at 2.63 kg·min/L in series [1], 2.65 kg·min/L in series [2], 1.46 kg·min/L in series [3] and 2.34 kg·min/L in series [4].

Turning to `Cc1cccc(C)c1NC(=O)NCCCNC(C)C` [RECAINAM], the DNAUC came to 98.57 kg·min/L in series [1], 6.3 kg·min/L in series [2], 72.4 kg·min/L in series [3] and 48 kg·min/L in series [4].

With `CN1C(C(=O)Nc2nccs2)=C(O)c2ccccc2S1(=O)=O` [SUDOXICAM], the DNAUC was 8161.43 kg·min/L in series [1], 4415.2 kg·min/L in series [2], 5554 kg·min/L in series [3] and 3821.3 kg·min/L in series [4].

As for `COc1ccc(C(CN(C)C)C2(O)CCCCC2)cc1` (stereo unspecified) [VENLAFAXINE], the DNAUC in series [1] stood at 1 kg·min/L; in series [2], 1.97 kg·min/L; in series [3], 48 kg·min/L; in series [4], 1.8 kg·min/L.

As for `Cn1cc(/C=C2/C(=O)N3C(C(=O)O)=CS[C@H]23)nn1`, the DNAUC was determined as 5 kg·min/L in series [1], 0.29 kg·min/L in series [2], 3.33 kg·min/L in series [3] and 0.45 kg·min/L in series [4].

Turning to `CC(C)n1c(/C=C/C(O)CC(O)CC(=O)O)c(-c2ccc(F)cc2)c2ccccc21` (stereo unspecified) [FLUVASTATIN], the DNAUC in series [1] is 49.3 kg·min/L; in series [2] it was 195 kg·min/L; in series [3], 82.11 kg·min/L; in series [4], 5.37 kg·min/L.

In the case of `CC1=NC(=O)C(CCN(C(C)C)C(C)C)(c2ccccc2)C2CCCCN12` (stereo unspecified) [ACTISOMIDE], the DNAUC in series [1] was 51.51 kg·min/L; in series [2], 14.49 kg·min/L; in series [3], 71.7 kg·min/L; in series [4], 26.46 kg·min/L.

Turning to `CCN[C@@H](C)Cc1cccc(C(F)(F)F)c1` [DEXFENFLURAMINE], the DNAUC in series [1] worked out at 80 kg·min/L; in series [2] it was 7.2 kg·min/L; in series [3], 6.72 kg·min/L; in series [4], 4.38 kg·min/L.

As for `CN1CCN(c2c(F)cc3c(=O)c(C(=O)O)cn(CCF)c3c2F)CC1` [FLEROXACIN], the DNAUC in series [1] is 432.41 kg·min/L; in series [2] it was 152.4 kg·min/L; in series [3], 618 kg·min/L; in series [4], 133.54 kg·min/L.

`CC1(C)O[C@@H]2C[C@H]3[C@@H]4C[C@H](F)C5=CC(=O)C=C[C@]5(C)[C@H]4[C@@H](O)C[C@]3(C)[C@]2(C(=O)CO)O1` [FLUNISOLIDE]: the DNAUC in series [1] came to 16.42 kg·min/L; in series [2] it was 107.25 kg·min/L; in series [3], 63.58 kg·min/L; in series [4], 2.1 kg·min/L.

For `COc1c(N2C[C@@H]3CCCN[C@@H]3C2)c(F)cc2c(=O)c(C(=O)O)cn(C3CC3)c12` [MOXIFLOXACIN], the DNAUC in series [1] amounted to 372.73 kg·min/L; in series [2] it was 18.35 kg·min/L; in series [3] it was 245.95 kg·min/L; in series [4], 45.09 kg·min/L.

As to `O=C(O)C(Cl)c1ccc(C2CCCCC2)c(Cl)c1` (stereo unspecified) [FENCLORAC], the DNAUC in series [1] came out at 2651.33 kg·min/L; in series [2], 630.2 kg·min/L; in series [3], 2454.09 kg·min/L; in series [4], 491.65 kg·min/L.

For `CC(C)(C)S(=O)(=O)C[C@@H](Cc1ccccc1)C(=O)N[C@@H](Cc1cnc[nH]1)C(=O)N[C@@H](CC1CCCCC1)[C@@H](O)[C@@H](O)C1CC1` [REMIKIREN], the DNAUC in series [1] was determined as 0.2 kg·min/L; in series [2], 0.25 kg·min/L; in series [3] it was 0.63 kg·min/L; in series [4], 0.14 kg·min/L.

In the case of `NS(=O)(=O)c1cc(C(=O)O)c(NCc2ccco2)cc1Cl` [FUROSEMIDE], the DNAUC in series [1] was found to be 184.62 kg·min/L; in series [2] it was 44.73 kg·min/L; in series [3] it was 57.84 kg·min/L; in series [4] it was 43.2 kg·min/L.

For the compound `COC(=O)C1=C(C)NC(C)=C(C(=O)OCC(C)C)C1c1ccccc1[N+](=O)[O-]` (stereo unspecified) [NISOLDIPINE], the DNAUC in series [1] amounted to 1.2 kg·min/L; in series [2], 0.49 kg·min/L; in series [3] it was 2.64 kg·min/L; in series [4], 0.84 kg·min/L.

Turning to `CC[C@H]1OC(=O)[C@H](C)[C@@H](O[C@H]2C[C@@](C)(OC)[C@@H](O)[C@H](C)O2)[C@H](C)[C@@H](O[C@@H]2O[C@H](C)C[C@H](N(C)C)[C@H]2O)[C@](C)(O)C[C@@H](C)CN(C)[C@H](C)[C@@H](O)[C@]1(C)O` [AZITHROMYCIN], the DNAUC in series [1] came to 33.15 kg·min/L; in series [2], 11.42 kg·min/L; in series [3], 140.4 kg·min/L; in series [4], 17.52 kg·min/L.

For the compound `C#C[C@]1(O)CC[C@H]2[C@@H]3CCc4cc(O)ccc4[C@H]3CC[C@@]21C` [ETHINYL ESTRADIOL], the DNAUC in series [1] stood at 75.45 kg·min/L; in series [2] it was 0.46 kg·min/L; in series [3] it was 4.5 kg·min/L; in series [4], 0.68 kg·min/L.

Turning to `CCN(CC)CC(=O)Nc1c(C)cccc1C` [LIDOCAINE], the DNAUC in series [1] is 38.04 kg·min/L; in series [2], 1.64 kg·min/L; in series [3] it was 8.38 kg·min/L; in series [4], 3.79 kg·min/L.

Turning to `CS(=O)(=O)Nc1ccc(F)c([C@@H](O)CN)c1` [NS-49], the DNAUC worked out at 306 kg·min/L in series [1], 33.3 kg·min/L in series [2], 382.2 kg·min/L in series [3] and 165.6 kg·min/L in series [4].

As to `CN(C)CCCC1(c2ccc(F)cc2)OCc2cc(C#N)ccc21` (stereo unspecified) [CITALOPRAM], the DNAUC was found to be 200 kg·min/L in series [1], 5.88 kg·min/L in series [2], 8.75 kg·min/L in series [3] and 9.85 kg·min/L in series [4].

Regarding `COc1nccc(-c2c(-c3ccc(F)cc3)ncn2C2CCNCC2)n1` [SB-242235], the DNAUC was 141 kg·min/L in series [1], 37.61 kg·min/L in series [2], 147.59 kg·min/L in series [3] and 115.9 kg·min/L in series [4].

As for `Cc1cnc(NC(=O)C2=C(O)c3ccccc3S(=O)(=O)N2C)s1` [MELOXICAM], the DNAUC in series [1] turned out to be 6655.81 kg·min/L; in series [2] it was 4998 kg·min/L; in series [3] it was 6870 kg·min/L; in series [4], 2856 kg·min/L.

On to `CCC1(C)CC(=O)NC1=O` (stereo unspecified) [ETHOSUXIMIDE], for which the DNAUC is 6666.67 kg·min/L in series [1], 285.71 kg·min/L in series [2], 2166.68 kg·min/L in series [3] and 2792.79 kg·min/L in series [4].

As to `CC(C)(C)NC(=O)[C@@H]1CN(Cc2cccnc2)CCN1C[C@@H](O)C[C@@H](Cc1ccccc1)C(=O)N[C@H]1c2ccccc2C[C@H]1O.O` [INDINAVIR], the DNAUC in series [1] was determined as 52.98 kg·min/L; in series [2], 3.13 kg·min/L; in series [3], 46.1 kg·min/L; in series [4], 5.34 kg·min/L.

Turning to `O=C(c1ccccc1)c1ccc2n1CCC2C(=O)O` (stereo unspecified) [KETOROLAC], the DNAUC is 1256.47 kg·min/L in series [1], 285 kg·min/L in series [2], 1352.94 kg·min/L in series [3] and 1912.26 kg·min/L in series [4].

With `CC(C)c1nc(CN(C)C(=O)N[C@H](C(=O)N[C@@H](Cc2ccccc2)C[C@H](O)[C@H](Cc2ccccc2)NC(=O)OCc2cncs2)C(C)C)cs1` [RITONAVIR], the DNAUC in series [1] is 370.17 kg·min/L; in series [2], 41.59 kg·min/L; in series [3], 101.08 kg·min/L; in series [4], 27.18 kg·min/L.

For the compound `N[C@@H]1[C@H]2CN(c3nc4c(cc3F)c(=O)c(C(=O)O)cn4-c3ccc(F)cc3F)C[C@@H]12` [TROVAFLOXACIN], the DNAUC stood at 540 kg·min/L in series [1], 51 kg·min/L in series [2], 44.25 kg·min/L in series [3] and 120.6 kg·min/L in series [4].

For the compound `O=P(O)(O)C(Sc1ccc(Cl)cc1)P(=O)(O)O` [TILUDRONIC ACID], the DNAUC in series [1] amounted to 286.32 kg·min/L; in series [2], 37.2 kg·min/L; in series [3], 129.6 kg·min/L; in series [4] it was 171.6 kg·min/L.

`Cc1c(C)c2c(c(C)c1O)CCC(C)(COc1ccc(CC3SC(=O)NC3=O)cc1)O2` (stereo unspecified) [TROGLITAZONE]: the DNAUC was determined as 80.71 kg·min/L in series [1], 13.44 kg·min/L in series [2], 61.2 kg·min/L in series [3] and 34.08 kg·min/L in series [4].

`NS(=O)(=O)Cc1noc2ccccc12` [ZONISAMIDE]: the DNAUC in series [1] was 3030 kg·min/L; in series [2] it was 663 kg·min/L; in series [3], 1458 kg·min/L; in series [4], 2097 kg·min/L.
